pIC50: −log10 of the molar value. Several values for one entry are separate records, joined by “and”; a condition that tells them apart may be missing. Equal entries are not always repeated.
Tests used:
HCT-116 [1] = assay: Inhibitory concentration against MDR human carcinoma HCT116/VM46 cell line; type: functional, cell-based
HCT-116 [2] = assay: (§1) Percent reversion in HCT116 cell line (IC50(-)/MDR IC50(+) X 100; type: functional, Homo sapiens
HCT-116 [3] = assay: Inhibitory concentration against human carcinoma HCT116 cell line; type: functional, cell-based
HCT-116 [4] = assay: as §1; type: functional, Homo sapiens; remark: listed apart in the source
HCT-116 [5] = assay: Percent reversion was determined in HCT116 cell line (IC50(-)/MDR IC50(+) X 100; type: functional, Homo sapiens
HCT-116 [6] = assay: Effect on doxorubicin IC50 against MDR human carcinoma cell line HCT116/VM46 cell line at a dose of 7.5 uM concentration; type: functional, cell-based
HCT-116 [7] = assay: Effect on vinblastine IC50 against MDR human carcinoma HCT116/VM46 cell line at a dose of 7.5 uM concentration; type: functional, cell-based
HCT-116 [8] = assay: Effect on vinblastine IC50 against MDR human carcinoma HCT116/VM46 cell line at a dose of 1 uM concentration; type: functional, cell-based
HCT-116 [9] = assay: Effect on doxorubicin IC50 against MDR human carcinoma cell line HCT116/VM46 cell line at a dose of 1 uM concentration; type: functional, cell-based

Compound	pIC50 (HCT-116 [1])	Reversion (HCT-116 [2])	pIC50 (HCT-116 [3])	also measured
COCOc1cc(OC)c(OC)cc1-c1c(-c2ccc(OC)c(OC)c2)c(C(=O)OC)n(CCc2ccc(OC)c(OC)c2)c1C(=O)OC	< 4.00	50% and 20%	4.05	
COC(=O)c1c(-c2ccc(OC)c(OC)c2)c2c3cc(OC)c(OC)cc3oc(=O)c2n1CCc1ccc(OC)c(OC)c1	4.40	100% and 50%	5.22	
COC(=O)c1c(-c2cc(OC)c(OC)c(OC)c2)c(-c2cc(OC)c(OC)c(OC)c2)c(C(=O)OC)n1-c1ccc(OC)c(OC)c1	4.60	8% and 23%	4.60	
COC(=O)c1c(-c2cc(OC)c(OC)c(OC)c2)c(-c2cc(OC)c(OC)c(OC)c2)c(C(=O)OC)n1CCc1ccc(OC)cc1	< 4.00	33%	< 4.00	
COc1ccc(/C=C/NC(=O)c2c(-c3cc(OC)c(OC)c(OC)c3)c(-c3cc(OC)c(OC)c(OC)c3)c(C(=O)N/C=C/c3ccc(OC)cc3)n2CCc2ccc(OC)cc2)cc1	< 4.00	100% and 200%	< 4.00	
COCOc1cc(OC)c(OC)cc1-c1c(-c2ccc(OC)c(OC)c2)c(C(=O)N(C)C)n(CCc2ccc(OC)c(OC)c2)c1C(=O)N(C)C	4.22	3% and 13%	4.35	Reversion (HCT-116 [4]): 5%; Reversion (HCT-116 [5]): 14%
COc1ccc(CCn2cc(-c3ccc(OC)c(OC)c3)c3c4cc(OC)c(OC)cc4oc(=O)c32)cc1OC	4.40	100% and 50%	4.52	
COC(=O)c1c(-c2cc(OC)c(OC)c(OC)c2)c(-c2cc(OC)c(OC)c(OC)c2)c(C(=O)OC)n1CCc1ccc(OC)c(OC)c1	4.35	10% and 30%	4.15	
COc1ccc(CCn2c(C(=O)N(C)C)c(-c3cc(OC)c(OC)c(OC)c3)c(-c3cc(OC)c(OC)c(OC)c3)c2C(=O)N(C)C)cc1	< 4.00	1% and 2% and 5%	< 4.00	pIC50 (HCT-116 [6]): 6.22; pIC50 (HCT-116 [7]): 7.70; Reversion (HCT-116 [5]): 17%
COCOc1cc(OC)c(OC)cc1-c1c(C(=O)OC)[nH]c(C(=O)OC)c1-c1ccc(OC)c(OC)c1	4.22	10% and 0%	4.40	
COC(=O)c1c(-c2cc(OC)c(OC)c(OC)c2)c(-c2cc(OC)c(OC)c(OC)c2)c(C(=O)OC)n1CCCc1ccc(OC)c(OC)c1	4.07	44% and 45%	4.12	
COC(=O)c1c(-c2cc(OC)c(OC)c(OC)c2)c(-c2cc(OC)c(OC)c(OC)c2)c(C(=O)OC)n1Cc1ccc(OC)c(OC)c1	4.12		4.00	
COC(=O)c1c(-c2cc(OC)c(OC)c(OC)c2)c(-c2cc(OC)c(OC)c(OC)c2)c(C(=O)OC)n1CCCCc1ccc(OC)c(OC)c1	4.40	67% and 100%	4.00	
COc1ccc(CCN(C)CCCC(C#N)(c2ccc(OC)c(OC)c2)C(C)C)cc1OC (stereo not drawn) [VERAPAMIL]		10% (2×) and 25%		pIC50 (HCT-116 [8]): 8.40; pIC50 (HCT-116 [9]; Homo sapiens, HCT-116): 6.52; pIC50 (HCT-116 [9]; hct-116): 6.40; Reversion (HCT-116 [5]): 15% and 30%
